Ki and GI50 data for 24 molecules are collected here from patent US10844044B2 (Vanderbilt University, priority 2018, dated 2020).

Read-outs that look alike come from different tables or passages of the source. Some results are limits rather than exact numbers.

In assay [1] the target is WDR5 (Homo sapiens (Human), UniProt P61964). As to the kind of experiment: TR-FRET binding assay (displacement of 10mer-Thr-FAM probe from WDR5). The settings on record: read-out: Ki for Inhibition of WDR5 by TR-FRET assay. (TR-FRET usually uses a lanthanide donor and a delayed reading to cut background.)
Assay [2] concerns MV4:11 human cancer cell lines. As to the kind of experiment: Anti-proliferative activity, CellTiter-Glo viability assay, 7 day protocol. Format: cell-based. The conditions noted are these: MV4:11 cells, 7 day incubation, read-out: GI50 on cellular proliferation of MV4:11 human cancer cell lines. The method, then:
Viability assays are performed by dispensing […] into each well of an opaque 384-well plate and adding compounds at the indicated concentrations in a final volume of 32 μL and a final concentration of DMSO of 0.1% for all samples. After a set incubation period, 7 day protocol, the viability of cells in each well is assessed using the CellTiter-Glo assay (Promega), read on a GloMax 96 Microplane Luminometer (Promega). Serial dilutions of each cell type are included in all assays to generate standard curves and determine assay measurements are taken within the dynamic range of the instrument. GI50 values are calculated based on three biological replicates, each with three technical replicates. Data are expressed as mean plus/minus S.E.M.
Background: ATP-based viability assays read luminescence as a measure of living cells.

Where [3] appears, read: TR-FRET, 10mer-Thr-FAM probe, WDR5-His tag 2 nM, pH 7.0.

Broadly, the Ki is a measure of affinity in units of concentration, obtained from inhibition or displacement. As to “3-(1-Ethyl-3-(trifluoromethyl)-1H-pyrazol-4-yl)-5-((2-iminooxazolidin-3-yl)methyl)-N-(1-methyl-6-oxo-1,6-dihydropyridin-3-yl)methyl)benzamide [Example 293]”, the Ki in assay [1] was 0.54 nM. Also, the GI50 in assay [2] was determined as 480 nM.

For the molecule `COc1cc(OC)cc([C@@H](NC(=O)c2cc(Cn3ccoc3=N)cc(-c3ccc(F)cc3Cl)c2)C2CC2)c1` (stereo in doubt) [Example 249, 2′-Chloro-N-(cyclopropyl(3,5-dimethoxyphenyl)methyl)-4′-fluoro-5-((2-iminooxazol-3(2H)-yl)methyl)-[1,1′-biphenyl]-3-carboxamide], in assay [1] (setting [3]), the Ki was less than 0.1 nM. Besides, in assay [2] (Homo sapiens, MV4-11, 168 h), the GI50 was 370 nM.

In the case of `Cc1nc(F)ccc1-c1cc(Cn2ccn(C)c2=N)cc(C(=O)NCc2ccc(Cl)c(Cl)c2)c1` [Example 1, N-(3,4-Dichlorobenzyl)-3-(6-fluoro-2-methylpyridin-3-yl)-5-((2-imino-3-methyl-2,3-dihydro-1H-imidazol-1-yl)methyl)benzamide], the Ki in assay [1] (setting [3]) is less than 0.1 nM. In assay [2] (Homo sapiens, MV4-11, 168 h), the GI50 worked out at 300 nM.

Turning to `Cc1ccnc(C(NC(=O)c2cc(Cn3ccn(C)c3=N)cc(-c3ccc(F)nc3C)c2)C2CC2)c1` (stereo not drawn) [Example 3, N-(Cyclopropyl(4-methylpyridin-2-yl)methyl)-3-(6-fluoro-2-methylpyridin-3-yl)-5-((2-imino-3-methyl-2,3-dihydro-1H-imidazol-1-yl)methyl)benzamide], the Ki in assay [1] (setting [3]) was less than 0.1 nM. Moreover, the GI50 in assay [2] (Homo sapiens, MV4-11, 168 h) was determined as 550 nM.

Turning to `COc1ccnc(CNC(=O)c2cc(Cn3ccn(C)c3=N)cc(-c3ccncc3C)c2)c1` [Example 8, 3-((2-Imino-3-methyl-2,3-dihydro-1H-imidazol-1-yl)methyl)-N-((4-methoxypyridin-2-yl)methyl)-5-(3-methylpyridin-4-yl)benzamide], the Ki in assay [1] (setting [3]) is 0.27 nM. Also, the GI50 in assay [2] (Homo sapiens, MV4-11, 168 h) turned out to be 170 nM.

For `Cc1ccnc(C(NC(=O)c2cc(Cn3ccn(C)c3=N)cc(-c3ccc(F)cc3C)c2)C2CC2)c1` (stereo not drawn) [Example 9, N-(Cyclopropyl(4-methylpyridin-2-yl)methyl)-4′-fluoro-5-((2-imino-3-methyl-2,3-dihydro-1H-imidazol-1-yl)methyl)-2′-methyl-[1,1′-biphenyl]-3-carboxamide], in assay [1] (setting [3]), the Ki is 0.15 nM. Also, in assay [2] (Homo sapiens, MV4-11, 168 h), the GI50 was determined as 220 nM.

As to `COc1ccnc(CNC(=O)c2cc(Cn3ccn(C)c3=N)cc(-c3cc(C)ccc3OC)c2)c1` [Example 10, 5-((2-Imino-3-methyl-2,3-dihydro-1H-imidazol-1-yl)methyl)-2′-m ethoxy-N-((4-methoxypyridin-2-yl)methyl)-5′-methyl-[1,1′-biphenyl]-3-carboxamide], the Ki in assay [1] (setting [3]) was 1.5 nM. Also, in assay [2] (Homo sapiens, MV4-11, 168 h), the GI50 came to 2300 nM.

Consider `Cc1cnccc1-c1cc(Cn2ccn(C)c2=N)cc(C(=O)NCc2ccc(Cl)c(Cl)c2)c1` [Example 25, N-(3,4-dichlorobenzyl)-3-((2-imino-3-methyl-2,3-dihydro-1H-imidazol-1-yl)methyl)-5-(3-methylpyridin-4-yl)benzamide], for which the Ki in assay [1] (setting [3]) was determined as 1.3 nM. In addition, the GI50 in assay [2] (Homo sapiens, MV4-11, 168 h) was determined as 6100 nM.

`Cc1ccc2[nH]ncc2c1-c1cc(Cn2ccn(C)c2=N)cc(C(=O)NCc2ccc(Cl)c(Cl)c2)c1` [Example 27, N-(3,4-Dichlorobenzyl)-3-((2-imino-3-methyl-2,3-dihydro-1H-imidazol-1-yl)methyl)-5-(5-methyl-1H-indazol-4-yl)benzamide]: the inhibitory constant (Ki) in assay [1] (setting [3]) is 1.5 nM. Besides, the GI50 in assay [2] (Homo sapiens, MV4-11, 168 h) is 3100 nM.

As for `Cc1cc(F)cc(F)c1-c1cc(Cn2ccn(C)c2=N)cc(C(=O)NCc2ccc(Cl)c(Cl)c2)c1` [Example 28, N-(3,4-Dichlorobenzyl)-2′,4′-difluoro-5-((2-imino-3-methyl-2,3-dihydro-1H-imidazo-1-yl)methyl)-6′-methyl-[1,1′-biphenyl]-3-carboxamide], in assay [1] (setting [3]), the Ki came to 0.35 nM. Further, the GI50 in assay [2] (Homo sapiens, MV4-11, 168 h) amounted to 1300 nM.

Turning to `Cc1cc(CNC(=O)c2cc(Cn3ccn(C)c3=N)cc(-c3c(C)ccc4[nH]ncc34)c2)ccc1Cl` [Example 33, N-(4-Chloro-3-methylbenzyl)-3-((2-imino-3-methyl-2,3-dihydro-1H-imidazol-1-yl)methyl)-5-(5-methyl-1H-indazol-4-yl)benzamide], the Ki in assay [1] (setting [3]) amounted to 0.99 nM. Besides, the GI50 in assay [2] (Homo sapiens, MV4-11, 168 h) was found to be 4900 nM.

As for `COc1cc(CN(C)C(=O)c2cc(Cn3ccn(C)c3=N)cc(-c3c(C)ccc4[nH]ncc34)c2)cc(OC)c1` [Example 34, N-(3,5-Dimethoxybenzyl)-3-((2-imino-3-methyl-2,3-dihydro-1H-imidazol-1-yl)methyl)-N-methyl-5-(5-methyl-1H-indazol-4-yl)benzamide], the Ki in assay [1] (setting [3]) came to 16 nM. For the same molecule, the GI50 in assay [2] (Homo sapiens, MV4-11, 168 h) turned out to be 30000 nM.

With `COc1cc(CNC(=O)c2cc(Cn3ccn(C)c3=N)cc(-c3c(C)ccc4[nH]ncc34)c2)cc(OC)c1` [Example 35, N-(3,5-Dimethoxybenzyl)-3-((2-imino-3-methyl-2,3-dihydro-1H-imidazol-1-yl)methyl)-5-(5-methyl-1H-indazol-4-yl)benzamide], the Ki in assay [1] (setting [3]) stood at 1.3 nM. In addition, the GI50 in assay [2] (Homo sapiens, MV4-11, 168 h) was 9000 nM.

`Cc1ccnc(C(NC(=O)c2cc(Cn3ccn(C)c3=N)cc(-c3cccnc3C)c2)C2CC2)c1` (stereo not drawn) [Example 37, N-(Cyclopropyl(4-methylpyridin-2-yl)methyl)-3-((2-imino-3-methyl-2,3-dihydro-1H-imidazol-1-yl)methyl)-5-(2-methylpyridin-3-yl)benzamide]: the Ki in assay [1] (setting [3]) worked out at 0.4 nM. Further, the GI50 in assay [2] (Homo sapiens, MV4-11, 168 h) worked out at 3800 nM.

`Cc1cc(CNC(=O)c2cc(Cn3ccn(C)c3=N)cc(-c3cccnc3C)c2)ncn1` [Example 38, 3-((2-Imino-3-methyl-2,3-dihydro-1H-imidazol-1-yl)methyl)-5-(2-methylpyridin-3-yl)-N-((6-methylpyrimidin-4-yl)methyl)benzamide]: the Ki in assay [1] (setting [3]) was 3.7 nM. The GI50 in assay [2] (Homo sapiens, MV4-11, 168 h) turned out to be 6000 nM.

As to `Cc1ncccc1-c1cc(Cn2ccn(C)c2=N)cc(C(=O)NC(C2CC2)C2CC2)c1` [Example 39, N-(Dicyclopropylmethyl)-3-((2-imino-3-methyl-2,3-dihydro-1H-imidazol-1-yl)methyl)-5-(2-methylpyridin-3-yl)benzamide], the Ki in assay [1] (setting [3]) was 17 nM. In assay [2] (Homo sapiens, MV4-11, 168 h), the GI50 was determined as 30000 nM.

Regarding `Cc1cc(C)nc(CNC(=O)c2cc(Cn3ccn(C)c3=N)cc(-c3cccnc3C)c2)n1` [Example 42, N-((4,6-Dimethylpyrimidin-2-yl)methyl)-3-((2-imino-3-methyl-2,3-dihydro-1H-imidazol-1-yl)methyl)-5-(2-methylpyridin-3-yl)benzamide], in assay [1] (setting [3]), the Ki is 10 nM. The GI50 in assay [2] (Homo sapiens, MV4-11, 168 h) worked out at 28000 nM.

With `Cc1ncccc1-c1cc(Cn2ccn(C)c2=N)cc(C(=O)NCc2ncc(Cl)cn2)c1` [Example 44, N-((5-Chloropyrimidin-2-yl)methyl)-3-((2-imino-3-methyl-2,3-dihydro-1H-imidazol-1-yl)methyl)-5-(2-methylpyridin-3-yl)benzamide], the Ki in assay [1] (setting [3]) is 9.2 nM. Also, in assay [2] (Homo sapiens, MV4-11, 168 h), the GI50 worked out at 22000 nM.

Take `Cc1cc(CNC(=O)c2cc(Cn3ccn(C)c3=N)cc(-c3cccc4[nH]nc(C)c34)c2)ccc1Cl` [Example 46, N-(4-chloro-3-methylbenzyl)-3-((2-imino-3-methyl-2,3-dihydro-1H-imidazol-1-yl)methyl)-5-(3-methyl-1H-indazol-4-yl)benzamide]: the Ki in assay [1] (setting [3]) is 1.3 nM. In addition, the GI50 in assay [2] (Homo sapiens, MV4-11, 168 h) was 5900 nM.

For the molecule `Cc1ccnc(C(NC(=O)c2cc(Cn3ccn(C)c3=N)cc(-c3c(C)ccc4[nH]ncc34)c2)C2CC2)c1` (stereo not drawn) [Example 47, N-(cyclopropyl(4-methylpyridin-2-yl)methyl)-3-((2-imino-3-methyl-2,3-dihydro-1H-imidazol-1-yl)methyl)-5-(5-methyl-1H-indazol-4-yl)benzamide], the Ki in assay [1] (setting [3]) came to 0.88 nM. Moreover, the GI50 in assay [2] (Homo sapiens, MV4-11, 168 h) turned out to be 6700 nM.

Turning to `COc1cc(CNC(=O)c2cc(Cn3ccn(C)c3=N)cc(-c3c(C)cc(F)cc3F)c2)cc(OC)c1` [Example 52, N-(3,5-dimethoxybenzyl)-2′,4′-difluoro-5-((2-imino-3-methyl-2,3-dihydro-1H-imidazol-1-yl)methyl)-6′-methyl-[1,1′-biphenyl]-3-carboxamide], the Ki in assay [1] (setting [3]) was 0.19 nM. Moreover, the GI50 in assay [2] (Homo sapiens, MV4-11, 168 h) was found to be 510 nM.

`Cc1cc(CNC(=O)c2cc(Cn3ccn(C)c3=N)cc(-c3c(C)cc(F)cc3F)c2)ccc1Cl` [Example 53, N-(4-Chloro-3-methylbenzyl)-2′,4′-difluoro-5-((2-imino-3-methyl-2,3-dihydro-1H-imidazol-1-yl)methyl)-6′-methyl-[1,1′-biphenyl]-3-carboxamide]: in assay [1] (setting [3]), the Ki is 0.56 nM. In assay [2] (Homo sapiens, MV4-11, 168 h), the GI50 worked out at 580 nM.

With `Cc1cc(C(C)NC(=O)c2cc(Cn3ccn(C)c3=N)cc(-c3ccc(F)cc3C)n2)ncc1Cl` (stereo not drawn) [Example 55, N-(1-(5-Chloro-4-methylpyridin-2-yl)ethyl)-6-(4-fluoro-2-methylphenyl)-4-((2-imino-3-methyl-2,3-dihydro-1H-imidazol-1-yl)methyl)picolinamide], in assay [1] (setting [3]), the Ki is 1.8 nM. The GI50 in assay [2] (Homo sapiens, MV4-11, 168 h) worked out at 1800 nM.

Consider `Cc1cc(CNC(=O)c2cc(Cn3ccn(C)c3=N)cc(-c3ccc(F)cc3C)n2)ccc1Cl` [Example 56, N-(4-Chloro-3-methylbenzyl)-6-(4-fluoro-2-methylphenyl)-4-((2-imino-3-methyl-2,3-dihydro-1H-imidazol-1-yl)methyl)picolinamide], for which, in assay [1] (setting [3]), the Ki was 1.2 nM. Further, in assay [2] (Homo sapiens, MV4-11, 168 h), the GI50 was 450 nM.
